Results published in PMC11604427 (Frontiers in Pharmacology, 2024).

Legend:
[1] = molecular target: T1, Human recombinant HDAC2 enzyme (Homo sapiens, UniProt Q92769); assay: HDAC2 fluorescence enzyme inhibition assay (Boc-Lys(acetyl)-AMC); format: biochemical
T1 construct: purchased Abcam
Method: Firstly, a 96-well plate was loaded with a blend comprising 10 μL of HDAC2 enzyme solution and 50 μL of the test compounds at assorted concentrations, followed by incubation at a temperature of 37°C for a duration of 5 min. Subsequently, 10 μL of the fluorescent substrate Boc-Lys (acetyl)-AMC was added and continued for 30 min. Finally, 100 μL of developer containing trypsin and TSA was injected into each well and incubated for 20 min.

[2] = test system: HepG2 xenograft; assay: HepG2 bearing xenograft model; format: in vivo, BALB/c nude mice; settings: versus vehicle
Text: A previously reported human tumor xenograft model was established to evaluate the anti-tumor effects of PKHD-5 in vivo ([Zhou et al., 2022]). All procedures involving animals were granted approval by the Ethics Committee at China Pharmaceutical University. A total of 20 male BALB/c nude mice (6 weeks old) were purchased from Changzhou Cave Experimental Animal Co., Ltd. (Changzhou, China). Mice were maintained under specific pathogen-free (SPF) conditions, with environmental parameters meticulously controlled at a temperature of 25°C ± 2°C, relative humidity maintained at 50% ± 5%, and an established diurnal cycle of 12 h for both light and darkness. During the experiment, all mice were free to access water and food. After 10 days of adaptive feeding, HepG2 cells (1×10^7 cells) were subcutaneously injected into mice. Once the tumors reached a size of 90–120 mm^3, the nude mice were randomly assigned to either the vehicle control group or the group treated with PKHD-5 (n = 5). Furthermore, the treatment was divided into three dose-based groups of 1, 5, and 10 mg/kg. The tumor volume was measured by a digital caliper for a total of 18 days and calculated by the following formula: (c×c×d)/2, where c represents the minimum diameter of the tumor and d indicates the maximum diameter. In addition, the body weight of the mice was measured and recorded every 3 days.

[3] = molecular target: T2, Human recombinant PKMYT1 enzyme (Homo sapiens, UniProt Q99640); assay: ADP-GLO enzyme inhibition assay; format: biochemical
T2 construct: purchased Abcam
T2 sequence (Q99640 1-499): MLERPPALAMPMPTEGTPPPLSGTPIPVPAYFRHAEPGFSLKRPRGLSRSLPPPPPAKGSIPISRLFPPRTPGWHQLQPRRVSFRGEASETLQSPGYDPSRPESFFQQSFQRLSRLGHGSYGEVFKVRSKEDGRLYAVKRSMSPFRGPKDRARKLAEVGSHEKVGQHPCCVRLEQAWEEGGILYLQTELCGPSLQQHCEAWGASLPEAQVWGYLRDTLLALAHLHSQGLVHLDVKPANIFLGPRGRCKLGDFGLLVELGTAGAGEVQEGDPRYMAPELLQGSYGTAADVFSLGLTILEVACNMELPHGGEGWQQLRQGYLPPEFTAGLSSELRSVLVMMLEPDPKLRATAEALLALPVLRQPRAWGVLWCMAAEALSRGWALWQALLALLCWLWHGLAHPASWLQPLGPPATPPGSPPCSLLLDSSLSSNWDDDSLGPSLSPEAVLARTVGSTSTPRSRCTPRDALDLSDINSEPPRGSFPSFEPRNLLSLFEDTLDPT
Method: The ADP-GLO™ kinase assay kit, purchased from Promega Corporation (Madison, WI, United States), included the ADP-GLO reagent, the kinase assay reagent, and ultra-pure ATP and ADP. PKMYT1 enzyme was dissolved in 5 μL of freshly prepared enzyme assay buffer containing 70 mM Hepes, 3 mM MgCl2, 3 mM MnCl2, 50 μg/mL PEG20000, 3 μM sodium orthovanadate, 1.2 mM dithiothreitol, and then injected into 384-well plates. […] The enzymatic reaction was initiated by adding 5 μL of ATP, followed by a 60-min incubation at 30°C. Subsequently, 15 μL of ADP-GLO reagent was added, and the incubation was continued for an additional 40 min at room temperature. Then, 30 μL of kinase detection reagent was introduced, and the samples were incubated for a final 30 min. Luminescence measurements were taken using an Envision plate reader (PerkinElmer). The IC50 value of each tested compound was calculated by GraphPad Prism software.

[4] = molecular target: T3, EPHA6 (Homo sapiens, UniProt Q9UF33); assay: SelectScreen kinase selectivity assay; format: biochemical
T3 construct: purchased Thermo Fisher Scientific (SelectScreen service)
Method: (§1) The kinase selectivity analysis of PKHD-5 was performed using the SelectScreen kinase analysis service provided by Thermo Fisher Scientific. The experiment initially involved the preparation of a series of inhibitor solutions at varying concentrations, which were then reacted with various kinase targets under standardized conditions to calculate the percentage inhibition for each test solution. Ultimately, the IC50 values were calculated based on the concentration-inhibition curves by fitting a four-parameter logistic curve, thereby assessing the potency and selectivity of the inhibitors. The analysis results are detailed in Supplementary Table S1.

[5] = test system: HepG2 cells; assay: Western blot of apoptosis markers; format: cell-based, human
Method: To evaluate the protein levels of apoptosis-associated markers, we performed Western blot analysis on cell extracts as previously reported ([Hao et al., 2018]). Briefly, equal amounts of protein were subjected to SDS-PAGE and then transferred onto a polyvinylidene fluoride (PVDF) membrane. The membrane was incubated in a blocking solution consisting of 5% non-fat dry milk in Tris-buffered saline with Tween-20 (TBS-T) for 3 h at room temperature. Subsequently, the membrane was probed with primary antibodies specific to cleaved PARP and cleaved caspase-3 overnight at 4°C. After washing, the membrane was incubated with horseradish peroxidase-conjugated secondary antibodies for 1 h at room temperature. Immunoreactive bands were visualized using a chemiluminescent substrate (ECL, Pierce Technology). The relative expression levels of cleaved PARP and cleaved caspase-3 were quantified.

[6] = test system: HCC cell lines; assay: MTT assay, all HCC cell lines; format: cell-based; settings: Homo sapiens, range over HepG2, Hep3B, Huh7, SNU449, HepG2/MDR, 48 h, read-out: IC50 values against all HCC cell lines
Method: The MTT assay was conducted to evaluate the inhibitory impact of PKHD-5 on HCC cells, HepG2/ADR cells, and normal liver cells ([Ding et al., 2020]). Cells at a density of 4×10^3 cells/well were inoculated into 96-well plates for overnight culture at 37°C. The cells were treated with varying concentrations of the test compounds and incubated for 48 h. Then, 100 μL of a 0.5 mg/mL MTT solution was pipetted into each well, and the incubation was prolonged for 4 h, resulting in the formation of a purple precipitate. Afterward, 200 μL of DMSO was added to each well, and the plate was vortexed for 10 min. The absorbance at 570 nm was determined with a Synergy 4 microplate reader (BioTek, United States). Each experiment was performed three times under the same conditions.

[7] = molecular target: 63 distinct kinases; assay: SelectScreen kinase selectivity assay, whole panel; format: biochemical; settings: read-out: IC50 values for each of the 63 kinases
Method: as §1

T1 sequence (Q92769 whole entry): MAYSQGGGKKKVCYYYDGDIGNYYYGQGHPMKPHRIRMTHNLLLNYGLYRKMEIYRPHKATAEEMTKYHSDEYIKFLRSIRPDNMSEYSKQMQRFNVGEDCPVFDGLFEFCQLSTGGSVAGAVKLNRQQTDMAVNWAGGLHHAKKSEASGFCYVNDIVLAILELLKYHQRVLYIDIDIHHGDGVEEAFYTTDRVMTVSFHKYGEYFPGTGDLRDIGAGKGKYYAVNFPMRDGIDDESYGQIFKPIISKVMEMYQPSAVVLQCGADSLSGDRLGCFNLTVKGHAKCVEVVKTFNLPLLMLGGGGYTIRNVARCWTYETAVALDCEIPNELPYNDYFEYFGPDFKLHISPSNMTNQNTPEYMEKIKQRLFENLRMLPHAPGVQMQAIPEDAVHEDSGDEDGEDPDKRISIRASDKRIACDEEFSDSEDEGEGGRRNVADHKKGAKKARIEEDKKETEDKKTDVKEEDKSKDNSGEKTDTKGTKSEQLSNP
T3 sequence (Q9UF33 23-1036): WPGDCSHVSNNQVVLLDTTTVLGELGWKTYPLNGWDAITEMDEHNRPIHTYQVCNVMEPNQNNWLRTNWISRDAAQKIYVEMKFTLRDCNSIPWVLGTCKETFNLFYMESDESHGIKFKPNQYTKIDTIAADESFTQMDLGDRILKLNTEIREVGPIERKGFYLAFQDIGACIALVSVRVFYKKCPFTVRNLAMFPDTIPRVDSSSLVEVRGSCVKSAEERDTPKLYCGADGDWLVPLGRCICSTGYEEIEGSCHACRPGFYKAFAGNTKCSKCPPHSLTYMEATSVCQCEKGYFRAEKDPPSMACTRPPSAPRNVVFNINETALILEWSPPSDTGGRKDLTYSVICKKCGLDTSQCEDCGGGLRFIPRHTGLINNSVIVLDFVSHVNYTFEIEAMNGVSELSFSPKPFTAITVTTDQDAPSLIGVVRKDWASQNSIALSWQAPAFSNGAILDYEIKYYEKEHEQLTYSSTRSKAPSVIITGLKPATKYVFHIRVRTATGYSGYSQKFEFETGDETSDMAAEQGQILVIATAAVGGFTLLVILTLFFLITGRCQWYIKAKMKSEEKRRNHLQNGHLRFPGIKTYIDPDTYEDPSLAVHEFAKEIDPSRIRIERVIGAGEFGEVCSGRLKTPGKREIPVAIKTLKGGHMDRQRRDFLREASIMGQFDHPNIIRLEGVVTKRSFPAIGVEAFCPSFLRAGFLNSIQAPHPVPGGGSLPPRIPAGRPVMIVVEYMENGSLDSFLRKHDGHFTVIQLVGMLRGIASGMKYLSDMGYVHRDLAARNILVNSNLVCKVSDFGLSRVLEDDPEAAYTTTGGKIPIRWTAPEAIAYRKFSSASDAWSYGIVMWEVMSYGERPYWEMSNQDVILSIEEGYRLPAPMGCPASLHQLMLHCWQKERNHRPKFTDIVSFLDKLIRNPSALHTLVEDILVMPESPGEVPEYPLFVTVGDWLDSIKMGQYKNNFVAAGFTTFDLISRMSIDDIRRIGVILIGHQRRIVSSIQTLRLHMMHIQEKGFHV

Structure (SMILES): Cc1ccc(O)c(C)c1-n1c(N)c(C(N)=O)c2cc(CCCCCC(=O)NO)c(C)nc21 [PKHD-5]
- IC50 ([1]; fluorescence signal-based method): 2.28 ± 0.13 nM
- fold inhibition of HDAC2 compared with SAHA ([1]; ratio of IC50 values versus SAHA): 4.42 fold
- body weight changes in mice ([2]; HepG2 xenograft mice): did not exhibit any significant disparities
- rate at which tumors grew (tumor volume) ([2]; HepG2 xenograft, intraperitoneal 1, 5, 10 mg/kg, 18 days): considerably lower
- IC50 ([3]; ADP-GLO method): 3.15 ± 0.21 nM
- fold inhibition of PKMYT1 compared with the control compound 39 ([3]; ratio of IC50 values versus compound 39): 4.91 fold
- IC50 [4]: > 50 µM
- levels of cleaved PARP [5]: increased levels
- levels of cleaved caspase-3 [5]: increased levels
- IC50 [6]: 190 to 920 nM
- IC50 [7]: > 50000 nM
